Values quoted from earlier work in patent US6974895B1, “Transgenic legume plants modified to produce resveratrol glucoside and uses thereof” (The Samuel Roberts Noble Foundation, Inc., priority 1999, dated 2005).

Test system: aberrant colon crypt formation
Conditions: azoxymethane treated rat model (Steele, et al. 1998)

For `Oc1ccc(C=Cc2cc(O)cc(O)c2)cc1` [resveratrol, 3,5,4′-trihydroxystilbene], the “inhibition of aberrant colon crypt formation” value is listed as “significant inhibition”.
